{
  "source": "ChEMBL document CHEMBL5543097",
  "about": "“Synthesis and structure-activity relationships of novel 14-membered 2-fluoro ketolides with structural modification at the C11 position” (Eur J Med Chem, 2024)",
  "key": {"Streptococcus pneumoniae [1]": {"test_system": "Streptococcus pneumoniae", "experiment": "Potency index, ratio of telithromycin MIC to test compound MIC for antibacterial activity against Streptococcus pneumoniae SPN19-13 assessed as inhibition of visible bacterial growth incubated for 18 hrs by broth microdilution method", "type": "functional"}, "Streptococcus pneumoniae [2]": {"test_system": "Streptococcus pneumoniae", "experiment": "Potency index, ratio of telithromycin MIC to test compound MIC for antibacterial activity against Streptococcus pneumoniae SPN19-8 assessed as inhibition of visible bacterial growth incubated for 18 hrs by broth microdilution method", "type": "functional"}, "[3]": {"test_system": "Staphylococcus epidermidis", "experiment": "Potency index, ratio of telithromycin MIC to test compound MIC for antibacterial activity against erythromycin-resistant Staphylococcus epidermidis 19-11 assessed as inhibition of visible bacterial growth incubated for 18 hrs by broth microdilution method", "type": "functional"}, "[4]": {"test_system": "Staphylococcus epidermidis", "experiment": "Potency index, ratio of telithromycin MIC to test compound MIC for antibacterial activity against erythromycin-resistant Staphylococcus epidermidis 19-9 assessed as inhibition of visible bacterial growth incubated for 18 hrs by broth microdilution method", "type": "functional"}, "[5]": {"test_system": "Staphylococcus epidermidis", "experiment": "Potency index, ratio of telithromycin MIC to test compound MIC for antibacterial activity against erythromycin-resistant Staphylococcus epidermidis 19-8 assessed as inhibition of visible bacterial growth incubated for 18 hrs by broth microdilution method", "type": "functional"}, "[6]": {"test_system": "Staphylococcus epidermidis", "experiment": "Potency index, ratio of telithromycin MIC to test compound MIC for antibacterial activity against erythromycin-resistant Staphylococcus epidermidis 19-6 assessed as inhibition of visible bacterial growth incubated for 18 hrs by broth microdilution method", "type": "functional"}, "[7]": {"test_system": "Staphylococcus epidermidis", "experiment": "Potency index, ratio of telithromycin MIC to test compound MIC for antibacterial activity against erythromycin-resistant Staphylococcus epidermidis 19-5 assessed as inhibition of visible bacterial growth incubated for 18 hrs by broth microdilution method", "type": "functional"}, "[8]": {"test_system": "Staphylococcus epidermidis", "experiment": "Potency index, ratio of telithromycin MIC to test compound MIC for antibacterial activity against erythromycin-resistant Staphylococcus epidermidis 19-4 assessed as inhibition of visible bacterial growth incubated for 18 hrs by broth microdilution method", "type": "functional"}, "Streptococcus pyogenes": {"test_system": "Streptococcus pyogenes", "experiment": "Antibacterial activity against erythromycin-resistant Streptococcus pyogenes ATCC 19615 assessed as inhibition of visible bacterial growth incubated for 18 hrs by broth microdilution method", "type": "functional"}, "Streptococcus agalactiae [9]": {"test_system": "Streptococcus agalactiae", "experiment": "Antibacterial activity against erythromycin-resistant Streptococcus agalactiae 19-9 assessed as inhibition of visible bacterial growth incubated for 18 hrs by broth microdilution method", "type": "functional"}, "Streptococcus agalactiae [10]": {"test_system": "Streptococcus agalactiae", "experiment": "Antibacterial activity against erythromycin-resistant Streptococcus agalactiae 19-8 assessed as inhibition of visible bacterial growth incubated for 18 hrs by broth microdilution method", "type": "functional"}, "Streptococcus pneumoniae [11]": {"test_system": "Streptococcus pneumoniae", "experiment": "Antibacterial activity against erythromycin-resistant Streptococcus pneumoniae SPN19-14 assessed as inhibition of visible bacterial growth incubated for 18 hrs by broth microdilution method", "type": "functional"}, "Streptococcus pneumoniae [12]": {"test_system": "Streptococcus pneumoniae", "experiment": "Antibacterial activity against erythromycin-resistant Streptococcus pneumoniae SPN19-13 assessed as inhibition of visible bacterial growth incubated for 18 hrs by broth microdilution method", "type": "functional"}, "Streptococcus pneumoniae [13]": {"test_system": "Streptococcus pneumoniae", "experiment": "Antibacterial activity against erythromycin-resistant Streptococcus pneumoniae SPN19-8 assessed as inhibition of visible bacterial growth incubated for 18 hrs by broth microdilution method", "type": "functional"}, "[14]": {"test_system": "Staphylococcus epidermidis", "experiment": "Antibacterial activity against erythromycin-resistant Staphylococcus epidermidis 19-11 assessed as inhibition of visible bacterial growth incubated for 18 hrs by broth microdilution method", "type": "functional"}, "[15]": {"test_system": "Staphylococcus epidermidis", "experiment": "Antibacterial activity against erythromycin-resistant Staphylococcus epidermidis 19-9 assessed as inhibition of visible bacterial growth incubated for 18 hrs by broth microdilution method", "type": "functional"}, "[16]": {"test_system": "Staphylococcus epidermidis", "experiment": "Antibacterial activity against erythromycin-resistant Staphylococcus epidermidis 19-8 assessed as inhibition of visible bacterial growth incubated for 18 hrs by broth microdilution method", "type": "functional"}, "[17]": {"test_system": "Staphylococcus epidermidis", "experiment": "Antibacterial activity against erythromycin-resistant Staphylococcus epidermidis 19-6 assessed as inhibition of visible bacterial growth incubated for 18 hrs by broth microdilution method", "type": "functional"}, "[18]": {"test_system": "Staphylococcus epidermidis", "experiment": "Antibacterial activity against erythromycin-resistant Staphylococcus epidermidis 19-4 assessed as inhibition of visible bacterial growth incubated for 18 hrs by broth microdilution method", "type": "functional"}, "[19]": {"test_system": "Staphylococcus epidermidis", "experiment": "Antibacterial activity against erythromycin-resistant Staphylococcus epidermidis 19-5 assessed as inhibition of visible bacterial growth incubated for 18 hrs by broth microdilution method", "type": "functional"}, "Streptococcus pneumoniae [20]": {"test_system": "Streptococcus pneumoniae", "experiment": "Potency index, ratio of telithromycin MIC to test compound MIC for antibacterial activity against Streptococcus pneumoniae SPN19-14 assessed as inhibition of visible bacterial growth incubated for 18 hrs by broth microdilution method", "type": "functional"}, "Moraxella catarrhalis [21]": {"test_system": "Moraxella catarrhalis", "experiment": "Antibacterial activity against Moraxella catarrhalis BCA 19-5 assessed as inhibition of bacterial growth incubated for 24 hrs by CLSI based broth microdilution method", "type": "functional", "details": "Moraxella catarrhalis, BCA 19-5, 24 h, read-out: MIC"}, "Moraxella catarrhalis [22]": {"test_system": "Moraxella catarrhalis", "experiment": "Antibacterial activity against Moraxella catarrhalis BCA 19-6 assessed as inhibition of bacterial growth incubated for 24 hrs by CLSI based broth microdilution method", "type": "functional", "details": "Moraxella catarrhalis, BCA 19-6, 24 h, read-out: MIC"}, "Moraxella catarrhalis [23]": {"test_system": "Moraxella catarrhalis", "experiment": "Antibacterial activity against Moraxella catarrhalis BCA 19-31 assessed as inhibition of bacterial growth incubated for 24 hrs by CLSI based broth microdilution method", "type": "functional", "details": "BCA 19-31, 24 h"}, "Haemophilus influenzae [24]": {"test_system": "Haemophilus influenzae", "experiment": "Antibacterial activity against Haemophilus influenzae HIN 19-15 assessed as inhibition of bacterial growth incubated for 20 to 24 hrs by CLSI based broth microdilution method", "type": "functional", "details": "time 20-24 hrs"}, "Haemophilus influenzae [25]": {"test_system": "Haemophilus influenzae", "experiment": "Antibacterial activity against Haemophilus influenzae HIN 19-18 assessed as inhibition of bacterial growth incubated for 20 to 24 hrs by CLSI based broth microdilution method", "type": "functional", "details": "HIN 19-18, time 20-24 hrs"}, "Staphylococcus aureus": {"test_system": "Staphylococcus aureus", "experiment": "Antibacterial activity against Staphylococcus aureus ATCC 700699 assessed as inhibition of visible bacterial growth", "type": "functional"}, "Enterococcus faecium": {"test_system": "Enterococcus faecium", "experiment": "Antibacterial activity against vancomycin-resistant Enterococcus faecium assessed as inhibition of visible bacterial growth", "type": "functional"}, "[26]": {"experiment": "Cytotoxicity against mouse AML12 cells assessed as reduction in cell viability incubated for 48 hrs by MTT assay", "type": "toxicity, cell-based"}, "Enterococcus faecalis": {"test_system": "Enterococcus faecalis", "experiment": "Antibacterial activity against Enterococcus faecalis ATCC 51575 assessed as inhibition of visible bacterial growth", "type": "functional, organism-based"}},
  "note": "Calls of active or inactive are those of the source. The calls are words filed in the database; no cut-off is given here.",
  "data": [
    {"smiles": "CC[C@H]1OC(=O)[C@@](C)(F)C(=O)[C@H](C)[C@@H](O[C@@H]2O[C@H](C)C[C@H](N(C)C)[C@H]2O)[C@](C)(OC)C[C@@H](C)C(=O)[C@H](C)[C@H]2N(CCCOC(=O)Nc3ccc4ccccc4c3)C(=O)O[C@]12C", "values": [
      {"measurement": "Ratio", "setting": "Streptococcus pneumoniae [1]", "result": "<4"},
      {"measurement": "Ratio", "setting": "Streptococcus pneumoniae [2]", "result": "<4"},
      {"measurement": "Ratio", "setting": "[3]", "result": 4},
      {"measurement": "Ratio", "setting": "[4]", "result": 4},
      {"measurement": "Ratio", "setting": "[5]", "result": 4},
      {"measurement": "Ratio", "setting": "[6]", "result": 4},
      {"measurement": "Ratio", "setting": "[7]", "result": 4},
      {"measurement": "Ratio", "setting": "[8]", "result": 4},
      {"measurement": "MIC", "setting": "Streptococcus pyogenes", "result": "< 0.03", "unit": "µg/mL"},
      {"measurement": "MIC", "setting": "Streptococcus agalactiae [9]", "result": 0.5, "unit": "µg/mL"},
      {"measurement": "MIC", "setting": "Streptococcus agalactiae [10]", "result": "< 0.03", "unit": "µg/mL"},
      {"measurement": "MIC", "setting": "Streptococcus pneumoniae [11]", "result": "< 0.03", "unit": "µg/mL"},
      {"measurement": "MIC", "setting": "Streptococcus pneumoniae [12]", "result": "< 0.03", "unit": "µg/mL"},
      {"measurement": "MIC", "setting": "Streptococcus pneumoniae [13]", "result": 0.25, "unit": "µg/mL"},
      {"measurement": "MIC", "setting": "[14]", "result": "< 0.03", "unit": "µg/mL"},
      {"measurement": "MIC", "setting": "[15]", "result": 0.125, "unit": "µg/mL"},
      {"measurement": "MIC", "setting": "[16]", "result": "< 0.03", "unit": "µg/mL"},
      {"measurement": "MIC", "setting": "[17]", "result": "< 0.03", "unit": "µg/mL"},
      {"measurement": "MIC", "setting": "[18]", "result": "< 0.03", "unit": "µg/mL"},
      {"measurement": "MIC", "setting": "[19]", "result": "< 0.03", "unit": "µg/mL"},
      {"measurement": "Ratio", "setting": "Streptococcus pneumoniae [20]", "result": "<4"},
      {"measurement": "MIC", "setting": "Moraxella catarrhalis [21]", "result": "< 0.03", "unit": "µg/mL"},
      {"measurement": "MIC", "setting": "Moraxella catarrhalis [22]", "result": "< 0.03", "unit": "µg/mL"},
      {"measurement": "MIC", "setting": "Moraxella catarrhalis [23]", "result": "< 0.03", "unit": "µg/mL"},
      {"measurement": "MIC", "setting": "Haemophilus influenzae [24]", "result": 8, "unit": "µg/mL"},
      {"measurement": "MIC", "setting": "Haemophilus influenzae [25]", "result": 2, "unit": "µg/mL"},
      {"measurement": "MIC", "setting": "Staphylococcus aureus", "result": 16, "unit": "µg/mL"},
      {"measurement": "MIC", "setting": "Enterococcus faecium", "result": 16, "unit": "µg/mL"},
      {"measurement": "CC50 at 48 h", "setting": "[26]", "result": 18.5, "unit": "µM"}
    ]},
    {"smiles": "CC[C@H]1OC(=O)[C@@](C)(F)C(=O)[C@H](C)[C@@H](O[C@@H]2O[C@H](C)C[C@H](N(C)C)[C@H]2O)[C@](C)(OC)C[C@@H](C)C(=O)[C@H](C)[C@H]2N(CCCOC(=O)Nc3ccc(C(C)C)cc3)C(=O)O[C@]12C", "values": [
      {"measurement": "MIC", "setting": "Streptococcus pyogenes", "result": "< 0.03", "unit": "µg/mL"},
      {"measurement": "MIC", "setting": "Streptococcus agalactiae [9]", "result": 4, "unit": "µg/mL"},
      {"measurement": "MIC", "setting": "Streptococcus agalactiae [10]", "result": "< 0.03", "unit": "µg/mL"},
      {"measurement": "MIC", "setting": "Streptococcus pneumoniae [11]", "result": 1, "unit": "µg/mL"},
      {"measurement": "MIC", "setting": "Streptococcus pneumoniae [12]", "result": 1, "unit": "µg/mL"},
      {"measurement": "MIC", "setting": "Streptococcus pneumoniae [13]", "result": 2, "unit": "µg/mL"},
      {"measurement": "MIC", "setting": "[14]", "result": 0.25, "unit": "µg/mL"},
      {"measurement": "MIC", "setting": "[15]", "result": 1, "unit": "µg/mL"},
      {"measurement": "MIC", "setting": "[16]", "result": "< 0.03", "unit": "µg/mL"},
      {"measurement": "MIC", "setting": "[17]", "result": 0.25, "unit": "µg/mL"},
      {"measurement": "MIC", "setting": "[18]", "result": 0.125, "unit": "µg/mL"},
      {"measurement": "MIC", "setting": "[19]", "result": "< 0.03", "unit": "µg/mL"},
      {"measurement": "MIC", "setting": "Moraxella catarrhalis [21]", "result": 0.5, "unit": "µg/mL"},
      {"measurement": "MIC", "setting": "Moraxella catarrhalis [22]", "result": 0.25, "unit": "µg/mL"},
      {"measurement": "MIC", "setting": "Moraxella catarrhalis [23]", "result": 1, "unit": "µg/mL"},
      {"measurement": "MIC", "setting": "Haemophilus influenzae [25]", "result": 16, "unit": "µg/mL"},
      {"measurement": "Activity", "setting": "Enterococcus faecalis", "result": "Active"},
      {"measurement": "MIC", "setting": "Enterococcus faecium", "result": 16, "unit": "µg/mL"},
      {"measurement": "CC50 at 48 h", "setting": "[26]", "result": 25.5, "unit": "µM"}
    ]}
  ]
}
